*1 amine or outer side, *2 acyl side, *3 side chain or, on linkers, in order; H or OH if unused. Where a SMILES comes first, the peptide text is derived from it. Bridges are numbered along the chain shown (N, C = ends). The star is where a group is joined. C20 diacid = O=C(O)CCCCCCCCCCCCCCCCCCC(=O)*; C18 diacid = O=C(O)CCCCCCCCCCCCCCCCC(=O)*; γGlu = O=C(O)[C@H](CCC(=O)[*:2])N[*:1]; AEEA = NCCOCCOCC(=O)O
Biological target: T1, Amylin 3(a) receptor (human calcitonin receptor (CTa) and RAMP-3) (Homo sapiens, UniProt O60896+P30988)
T1 construct: expressed in transfected cells; host or cells: BHK570 cells, stably transfected with a CRE-luciferase reporter
Assay: Luciferase assay (III), BHK Amylin 3(a)//CRE-luc cells
Format: cell-based
Conditions: BHK cells with Amylin 3(a) receptor and CRE luciferase reporter, 4 hours incubation; read-out: Potency Luciferase
Procedure, shortened: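 BHK570 cells stably expressing CTa, RAMP-3 and a CRE-luciferase reporter, seeded at about 20,000 cells/well and grown overnight. Cells were exposed to standard or sample for 4 h at 37° C in phenol red-free DMEM with 10% FBS and 10 mM Hepes, pH 7,4. Luminescence was read after 30 min LucLite at room temperature.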

T1 sequence (O60896 24-148): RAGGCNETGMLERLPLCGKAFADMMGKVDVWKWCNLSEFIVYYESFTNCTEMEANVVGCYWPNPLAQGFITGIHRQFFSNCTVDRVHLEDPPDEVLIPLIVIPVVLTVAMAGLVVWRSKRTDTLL
T1 sequence (P30988 25-474): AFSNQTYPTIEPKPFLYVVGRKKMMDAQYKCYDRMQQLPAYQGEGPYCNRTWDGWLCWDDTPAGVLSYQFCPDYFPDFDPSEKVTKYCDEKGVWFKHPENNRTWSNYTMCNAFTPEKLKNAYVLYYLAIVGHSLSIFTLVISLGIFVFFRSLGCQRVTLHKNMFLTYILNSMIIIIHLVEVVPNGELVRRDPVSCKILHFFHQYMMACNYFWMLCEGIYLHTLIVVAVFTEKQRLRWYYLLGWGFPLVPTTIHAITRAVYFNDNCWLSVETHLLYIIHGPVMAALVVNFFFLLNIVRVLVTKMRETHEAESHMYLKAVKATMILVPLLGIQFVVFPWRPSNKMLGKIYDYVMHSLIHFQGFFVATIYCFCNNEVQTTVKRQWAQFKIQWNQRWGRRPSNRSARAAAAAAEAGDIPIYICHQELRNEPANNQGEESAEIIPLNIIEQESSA

Compared with `CC[C@H](C)[C@H](NC(=O)[C@@H]1CCCN1C(=O)CNC(=O)[C@H](Cc1ccccc1)NC(=O)[C@H](CC(N)=O)NC(=O)[C@H](CC(N)=O)NC(=O)[C@H](CO)NC(=O)[C@H](CO)NC(=O)[C@H](Cc1c[nH]cn1)NC(=O)[C@H](CCCNC(=N)N)NC(=O)[C@H](CC(C)C)NC(=O)[C@H](Cc1ccccc1)NC(=O)[C@H](CC(N)=O)NC(=O)[C@H](C)NC(=O)[C@H](CC(C)C)NC(=O)[C@H](CCCNC(=N)N)NC(=O)[C@H](CCC(N)=O)NC(=O)[C@@H](NC(=O)[C@H](C)NC(=O)[C@@H]1CSSC[C@H](NC(=O)[C@H](CCCCN)NC(=O)[C@H](CCCNC(=N)N)NC(=O)CC[C@H](NC(=O)CCCCCCCCCCCCCCCCC(=O)O)C(=O)O)C(=O)N[C@@H](CC(N)=O)C(=O)N[C@@H]([C@@H](C)O)C(=O)N[C@@H](C)C(=O)N[C@@H]([C@@H](C)O)C(=O)N1)[C@@H](C)O)C(=O)N[C@@H](CC(C)C)C(=O)N1CCC[C@H]1C(=O)N1CCC[C@H]1C(=O)N[C@H](C(=O)N[C@@H](CC(N)=O)C(=O)N[C@H](C(=O)NCC(=O)N[C@@H](CO)C(=O)N[C@@H](CC(N)=O)C(=O)N[C@H](C(=O)N[C@@H](Cc1ccc(O)cc1)C(N)=O)[C@@H](C)O)C(C)C)[C@@H](C)O` [Example 26, N-alpha-[(S)-4-Carboxy-4-(17-carboxyheptadecanoylamino)butyryl]-Arg-[Arg17]-pramlintide] ({C18 diacid-γGlu}-RKCNTATCATQRLANFLRHSSNNFGPILPPTNVGSNTY-NH2; disulfide 3-8), `CC[C@H](C)[C@H](NC(=O)[C@@H]1CCCN1C(=O)CNC(=O)[C@H](Cc1ccccc1)NC(=O)[C@H](CC(N)=O)NC(=O)[C@H](CC(N)=O)NC(=O)[C@H](CO)NC(=O)[C@H](CO)NC(=O)[C@H](Cc1c[nH]cn1)NC(=O)[C@H](C)NC(=O)[C@H](CC(C)C)NC(=O)[C@H](Cc1ccccc1)NC(=O)[C@H](CC(N)=O)NC(=O)[C@H](C)NC(=O)[C@H](CC(C)C)NC(=O)[C@H](CCCNC(=N)N)NC(=O)[C@H](CCC(N)=O)NC(=O)[C@@H](NC(=O)[C@H](C)NC(=O)[C@@H]1CSSC[C@H](NC(=O)[C@H](CCCCN)NC(=O)[C@H](CCCNC(=N)N)NC(=O)COCCOCCNC(=O)CC[C@H](NC(=O)CCCCCCCCCCCCCCCCCCC(=O)O)C(=O)O)C(=O)N[C@@H](CC(N)=O)C(=O)N[C@@H]([C@@H](C)O)C(=O)N[C@@H](C)C(=O)N[C@@H]([C@@H](C)O)C(=O)N1)[C@@H](C)O)C(=O)N[C@@H](CC(C)C)C(=O)N1CCC[C@H]1C(=O)N1CCC[C@H]1C(=O)N[C@H](C(=O)N[C@@H](CC(N)=O)C(=O)N[C@H](C(=O)NCC(=O)N[C@@H](CO)C(=O)N[C@@H](CC(N)=O)C(=O)N[C@H](C(=O)N[C@@H](Cc1ccc(O)cc1)C(N)=O)[C@@H](C)O)C(C)C)[C@@H](C)O` [Example 24, N-alpha-[2-(2-{2-[4-(S)-Carboxy-4-(19-carboxynonadecanoylamino)butyrylamino]ethoxy}ethoxy)acetyl]-Arg-[Ala17]-pramlintide] ({C20 diacid-γGlu-AEEA}-RKCNTATCATQRLANFLAHSSNNFGPILPPTNVGSNTY-NH2; disulfide 3-8) is 1.6-fold higher in EC50: 0.05 nM for the first, 0.08 nM for the second. The first is the more potent here.

Compared with `CC[C@H](C)[C@H](NC(=O)[C@@H]1CCCN1C(=O)CNC(=O)[C@H](Cc1ccccc1)NC(=O)[C@H](CC(N)=O)NC(=O)[C@H](CC(N)=O)NC(=O)[C@H](CO)NC(=O)[C@H](CO)NC(=O)[C@H](Cc1c[nH]cn1)NC(=O)[C@H](CCCNC(=N)N)NC(=O)[C@H](CC(C)C)NC(=O)[C@H](Cc1ccccc1)NC(=O)[C@H](CC(N)=O)NC(=O)[C@H](C)NC(=O)[C@H](CC(C)C)NC(=O)[C@H](CCCNC(=N)N)NC(=O)[C@H](CCC(N)=O)NC(=O)[C@@H](NC(=O)[C@H](C)NC(=O)[C@@H]1CSSC[C@H](NC(=O)[C@H](Cc2c[nH]cn2)NC(=O)[C@H](Cc2c[nH]cn2)NC(=O)CC[C@H](NC(=O)CCCCCCCCCCCCCCCCCCC(=O)O)C(=O)O)C(=O)N[C@@H](CC(N)=O)C(=O)N[C@@H]([C@@H](C)O)C(=O)N[C@@H](C)C(=O)N[C@@H]([C@@H](C)O)C(=O)N1)[C@@H](C)O)C(=O)N[C@@H](CC(C)C)C(=O)N1CCC[C@H]1C(=O)N1CCC[C@H]1C(=O)N[C@H](C(=O)N[C@@H](CC(N)=O)C(=O)N[C@H](C(=O)NCC(=O)N[C@@H](CO)C(=O)N[C@@H](CC(N)=O)C(=O)N[C@H](C(=O)N[C@@H](Cc1ccc(O)cc1)C(N)=O)[C@@H](C)O)C(C)C)[C@@H](C)O` [Example 35, N-alpha-[(S)-4-Carboxy-4-(19-carboxynonadecanoylamino)butyryl]-His-[His1,Arg17]-pramlintide] ({C20 diacid-γGlu}-HHCNTATCATQRLANFLRHSSNNFGPILPPTNVGSNTY-NH2; disulfide 3-8), `CC[C@H](C)[C@H](NC(=O)[C@@H]1CCCN1C(=O)CNC(=O)[C@H](Cc1ccccc1)NC(=O)[C@H](CC(N)=O)NC(=O)[C@H](CC(N)=O)NC(=O)[C@H](CO)NC(=O)[C@H](CO)NC(=O)[C@H](Cc1c[nH]cn1)NC(=O)[C@H](Cc1c[nH]cn1)NC(=O)[C@H](CC(C)C)NC(=O)[C@H](Cc1ccccc1)NC(=O)[C@H](CC(N)=O)NC(=O)[C@H](C)NC(=O)[C@H](CC(C)C)NC(=O)[C@H](CCCNC(=N)N)NC(=O)[C@H](CCC(N)=O)NC(=O)[C@@H](NC(=O)[C@H](C)NC(=O)[C@@H]1CSSC[C@H](NC(=O)[C@H](Cc2c[nH]cn2)NC(=O)[C@H](CCCNC(=N)N)NC(=O)[C@H](Cc2c[nH]cn2)NC(=O)CC[C@H](NC(=O)CCCCCCCCCCCCCCCCCCC(=O)O)C(=O)O)C(=O)N[C@@H](CC(N)=O)C(=O)N[C@@H]([C@@H](C)O)C(=O)N[C@@H](C)C(=O)N[C@@H]([C@@H](C)O)C(=O)N1)[C@@H](C)O)C(=O)N[C@@H](CC(C)C)C(=O)N1CCC[C@H]1C(=O)N1CCC[C@H]1C(=O)N[C@H](C(=O)N[C@@H](CC(N)=O)C(=O)N[C@H](C(=O)NCC(=O)N[C@@H](CO)C(=O)N[C@@H](CC(N)=O)C(=O)N[C@H](C(=O)N[C@@H](Cc1ccc(O)cc1)C(N)=O)[C@@H](C)O)C(C)C)[C@@H](C)O` [Example 72, N-alpha-[(S)-4-Carboxy-4-(19-carboxynonadecanoylamino)butyryl]-His-Arg-[His1,His17]-pramlintide] ({C20 diacid-γGlu}-HRHCNTATCATQRLANFLHHSSNNFGPILPPTNVGSNTY-NH2; disulfide 4-9) is 2-fold lower in EC50: 0.1 nM for the first, 0.05 nM for the second. The second is the more potent here.

Compared with `CC[C@H](C)[C@H](NC(=O)[C@@H]1CCCN1C(=O)CNC(=O)[C@H](Cc1ccccc1)NC(=O)[C@H](CC(N)=O)NC(=O)[C@H](CC(N)=O)NC(=O)[C@H](CO)NC(=O)[C@H](CO)NC(=O)[C@H](Cc1c[nH]cn1)NC(=O)[C@H](CCCNC(=N)N)NC(=O)[C@H](CC(C)C)NC(=O)[C@H](Cc1ccccc1)NC(=O)[C@H](CC(N)=O)NC(=O)[C@H](C)NC(=O)[C@H](CC(C)C)NC(=O)[C@H](CCCNC(=N)N)NC(=O)[C@H](CCC(N)=O)NC(=O)[C@@H](NC(=O)[C@H](C)NC(=O)[C@@H]1CSSC[C@H](NC(=O)[C@H](Cc2c[nH]cn2)NC(=O)[C@H](Cc2c[nH]cn2)NC(=O)COCCOCCNC(=O)CC[C@H](NC(=O)CCCCCCCCCCCCCCCCCCC(=O)O)C(=O)O)C(=O)N[C@@H](CC(N)=O)C(=O)N[C@@H]([C@@H](C)O)C(=O)N[C@@H](C)C(=O)N[C@@H]([C@@H](C)O)C(=O)N1)[C@@H](C)O)C(=O)N[C@@H](CC(C)C)C(=O)N1CCC[C@H]1C(=O)N1CCC[C@H]1C(=O)N[C@H](C(=O)N[C@@H](CC(N)=O)C(=O)N[C@H](C(=O)NCC(=O)N[C@@H](CO)C(=O)N[C@@H](CC(N)=O)C(=O)N[C@H](C(=O)N[C@@H](Cc1ccc(O)cc1)C(N)=O)[C@@H](C)O)C(C)C)[C@@H](C)O` [Example 34, N-alpha-[2-(2-{2-[4-(S)-Carboxy-4-(19-carboxynonadecanoylamino)butyrylamino]ethoxy}ethoxy)acetyl]-His-[His1,Arg17]-pramlintide] ({C20 diacid-γGlu-AEEA}-HHCNTATCATQRLANFLRHSSNNFGPILPPTNVGSNTY-NH2; disulfide 3-8), `CC[C@H](C)[C@H](NC(=O)[C@@H]1CCCN1C(=O)CNC(=O)[C@H](Cc1ccccc1)NC(=O)[C@H](CC(N)=O)NC(=O)[C@H](CC(N)=O)NC(=O)[C@H](CO)NC(=O)[C@H](CO)NC(=O)[C@H](Cc1c[nH]cn1)NC(=O)[C@H](Cc1c[nH]cn1)NC(=O)[C@H](CC(C)C)NC(=O)[C@H](Cc1ccccc1)NC(=O)[C@H](CC(N)=O)NC(=O)[C@H](C)NC(=O)[C@H](CC(C)C)NC(=O)[C@H](CCCNC(=N)N)NC(=O)[C@H](CCC(N)=O)NC(=O)[C@@H](NC(=O)[C@H](C)NC(=O)[C@@H]1CSSC[C@H](NC(=O)COCCOCCNC(=O)CC[C@H](NC(=O)CCCCCCCCCCCCCCCCCCC(=O)O)C(=O)O)C(=O)N[C@@H](CC(N)=O)C(=O)N[C@@H]([C@@H](C)O)C(=O)N[C@@H](C)C(=O)N[C@@H]([C@@H](C)O)C(=O)N1)[C@@H](C)O)C(=O)N[C@@H](CC(C)C)C(=O)N1CCC[C@H]1C(=O)N1CCC[C@H]1C(=O)N[C@H](C(=O)N[C@@H](CC(N)=O)C(=O)N[C@H](C(=O)NCC(=O)N[C@@H](CO)C(=O)N[C@@H](CC(N)=O)C(=O)N[C@H](C(=O)N[C@@H](Cc1ccc(O)cc1)C(N)=O)[C@@H](C)O)C(C)C)[C@@H](C)O` [Example 16, N-alpha-[2-(2-{2-[4-(S)-Carboxy-4-(19-carboxynonadecanoylamino)butyrylamino]ethoxy}ethoxy)acetyl]-[His17]-pramlintide (2-37)] ({C20 diacid-γGlu-AEEA}-CNTATCATQRLANFLHHSSNNFGPILPPTNVGSNTY-NH2; disulfide 1-6) is 2-fold lower in EC50: 0.2 nM for the first, 0.1 nM for the second. The second is the more potent here.
